Results on five molecules are retold here after patent publication US12636297B2, “Boronic acid derivatives and therapeutic uses thereof” (priority 2019, dated 2026).

In assay [1] the test system is Carbapenem-Resistant Enterobacteriaceae. As to the kind of experiment: MIC distribution for 509 Carbapenem-Resistant Enterobacteriaceae (FIG. 2). The note with it: Compound 1 at 8 μg/mL. It counts as cell-based. The protocol:
(§1) In addition, 509 Carbapenem-Resistant Enterobacteriaceae were tested with meropenem, cefepime, and ceftolozane alone and in combination with Compound 1 at 8 μg/mL. Furthermore, 262 strains of P. aeruginosa with a meropenem MIC>2 μg/mL were tested with meropenem, ceftolozane, cefepime and piperacillin alone and in combination with Compound 1 at 8 μg/mL.
The MIC distribution of combinations of Compound 1 with meropenem, cefepime and cetolozane alone, or with Compound 1 at 8 μg/mL for Carbapenem-Resistant Enterobacteriaceae were tested.

The test system of assay [2] is carbapenem resistant Enterobacteriaceae (CRE). As to the kind of experiment: MIC of antibiotics with Compound 1 against panel of 510 CRE clinical isolates. The format is cell-based. The note with it: for MIC50 / MIC90: antibiotic alone. The method, then:
In this example, the antibiotics meropenem, cefepime, ceftolozane and cefiderocol, were tested in combination with Compound 1 at 4 μg/ml and 8 μg/ml against a panel of 510 clinical isolates representing various types of carbapenem resistant Enterobacteriaceae (CRE). Cefiderocol was tested at standard conditions, in […] media.

Assay [3] deals with carbapenem resistant Acinetobacter baumannii. The experiment in a line: MIC of antibiotics with Compound 1 against panel of 503 carbapenem resistant Acinetobacter baumannii clinical isolates. The format is cell-based. The conditions noted are these: for MIC50 / MIC90: carbapenem resistant Acinetobacter baumannii (N = 503), antibiotic alone. The method, then:
In another experiment, various antibiotics, meropenem, cefepime, ceftolozane and cefiderocol, were tested in combination with Compound 1 at 4 μg/ml and 8 μg/ml against the panel of 503 clinical isolates of carbapenem resistant Acinetobacter baumannii. […] Cefiderocol was tested at standard conditions, in […] media.

For the next assay, the system named is P. aeruginosa. The experiment in a line: Susceptibility testing of 262 P. aeruginosa strains with meropenem MIC >2 μg/mL. The conditions noted are these: Compound 1 at 8 μg/mL; for % of susceptible organisms at breakpoints: breakpoints ≤8 μg/mL meropenem and cefepime, ≤4 μg/mL ceftolozane, ≤16 μg/mL piperacillin. The format is cell-based, Pseudomonas aeruginosa. The protocol:
as §1
262 strains of P. aeruginosa having a meropenem MIC greater than 2 μg/mL were tested with meropenem, ceftolozane, cefepime and piperacillin alone and Compound 1 at 8 μg/mL.

For assay [4], the system named is carbapenem-resistant (CR) Acinetobacter baumannii (AB). The experiment in a line: Broth microdilution MIC of β-lactams alone and with Compound 1 against carbapenem-resistant Acinetobacter baumannii clinical isolates. The format is cell-based. The note with it: for MIC: SUL alone; for % susceptible, [S]: breakpoints MER ≤8 μg/mL, TOL ≤4 μg/mL. The method, then: (§2) In this example the in vitro activity of Compound 1 was evaluated in combination with several β-lactams including sulbactam, meropenem, and ceftolozane against clinical isolates of carbapenem-resistant (CR) Acinetobacter baumannii (AB) and Pseudomonas aeruginosa (PA).
For orientation: In broth dilution the organism is exposed to a series of concentrations in liquid medium.

In assay [5] the test system is Pseudomonas aeruginosa (PA). The experiment in a line: Broth microdilution MIC of β-lactams alone and with Compound 1 against Pseudomonas aeruginosa clinical isolates (representative and challenge panels). The format is cell-based. The conditions noted are these: for Minimum Inhibitory Concentration Distribution, % of isolates: representative panel of PA (N = 500), without Compound 1, AVI and TAZ at 4 μg/mL; for % susceptible, [S] / MIC50 / MIC90: Compound 1, AVI, and TAZ at fixed 4 μg/mL; for % susceptible, [S]: breakpoints MER ≤8, TOL ≤4, CAZ ≤8 μg/mL; for MIC50 / MIC90: Pseudomonas aeruginosa. The protocol:
as §2

[6] abbreviates: non-carbapenemase producing CRE, N = 45.
The mark [7] stands for this setting: CRAB (300), Compound 1 at fixed 4 μg/mL.

Where two headings read alike, the source gives them in different places.

Turning to `O=C(O)c1c(F)ccc2c1OB(O)[C@@H]1C[C@H]21` [Compound 1, 5-Fluoro-2-hydroxy-1a,7b-dihydro-1H-cyclopropa[c][1,2]benzoxaborinine-4-carboxylic acid], the “Effect on potency of meropenem, cefepime and ceftolozane (MIC distribution, FIG. 2)” value in assay [1] is recorded as “significantly increased potency of all tested antibiotics”. In addition, the “Effect on MIC90 of antibiotics” value in assay [2] (Compound 1 at 4 and 8 μg/ml, 510 CRE clinical isolates) is “shifted MIC90 of all antibiotics (except ceftolozane tested against metallo beta-lactamases, MBL) into susceptible range”. Also, in assay [3] (Compound 1 at 4 and 8 μg/ml, 503 carbapenem resistant A. baumannii isolates), the “Effect on potency of antibiotics” value is “significantly enhances the potency of meropenem and cefiderocol”. Moreover, the “Effect on proportion of susceptible P. aeruginosa” value in the assay on P. aeruginosa (262 strains with meropenem MIC >2 μg/mL) was “increased the proportion of susceptible organisms for all tested agents”.
What is called MIC50 is an inhibitory concentration at the 50% level, which refers to growth in some studies and to a panel of isolates in others. One may read the MIC90 as the lowest concentration that inhibits either 90% of growth or 90% of the strains tested, depending on the study. Take `CC(C)(O/N=C(\C(=O)N[C@@H]1C(=O)N2C(C(=O)[O-])=C(C[N+]3(CCNC(=O)c4ccc(O)c(O)c4Cl)CCCC3)CS[C@H]12)c1csc(N)n1)C(=O)O` [DER, cefiderocol]: the MIC50 in assay [2] (CRE KPC, N = 168) is 2 µg/mL; in assay [2] (CRE MBL, N = 145) it was 8 µg/mL; in assay [2] (CRE OXA, N = 152), 1 µg/mL; in assay [2] (setting [6]), 2 µg/mL; in assay [3] it was 1 µg/mL. The MIC90 in assay [2] (CRE KPC, N = 168) is 32 µg/mL; in assay [2] (CRE MBL, N = 145), > 32 µg/mL; in assay [2] (CRE OXA, N = 152) it was 8 µg/mL; in assay [2] (setting [6]) it was 32 µg/mL; in assay [3] it was 32 µg/mL.
Take `CO/N=C(\C(=O)N[C@@H]1C(=O)N2C(C(=O)[O-])=C(C[N+]3(C)CCCC3)CS[C@H]12)c1csc(N)n1` [FEP, cefepime]: the MIC50 in assay [2] (CRE KPC, N = 168) was 32 µg/mL; in assay [2] (CRE MBL, N = 145), > 32 µg/mL; in assay [2] (CRE OXA, N = 152), > 32 µg/mL; in assay [2] (setting [6]), > 32 µg/mL; in assay [3] it was > 32 µg/mL. Moreover, the MIC90 was > 32 µg/mL in assay [2] (CRE KPC, N = 168); > 32 µg/mL in assay [2] (CRE MBL, N = 145); > 32 µg/mL in assay [2] (CRE OXA, N = 152); > 32 µg/mL in assay [2] (setting [6]); > 32 µg/mL in assay [3]. The “% of susceptible organisms at breakpoints” value with P. aeruginosa (All strains (N = 262), meropenem MIC >2 μg/mL) is 20%; in the assay on P. aeruginosa (MBL (N = 56)), 4%; in the assay on P. aeruginosa (No MBL (N = 206)) it was 24%.
On to `CC1(C)[C@H](C(=O)O)N2C(=O)C[C@H]2S1(=O)=O` [SUL, sulbactam], for which the MIC50 in assay [4] (Acinetobacter baumannii) is > 32 µg/mL. Besides, the MIC90 in assay [4] (Acinetobacter baumannii) is > 32 µg/mL. Also, the MIC in assay [4] (Acinetobacter baumannii, read-out: Minimum Inhibitory Concentration, AB1144 (NDM-1)) is > 64 µg/mL; in assay [4] (Acinetobacter baumannii, read-out: Minimum Inhibitory Concentration, AB1192 (OXA-24, OXA-72)), 32 µg/mL; in assay [4] (Acinetobacter baumannii, read-out: Minimum Inhibitory Concentration, AB1223 (OXA-72)) it was 4 µg/mL; in assay [4] (Acinetobacter baumannii, read-out: Minimum Inhibitory Concentration, AB1227 (OXA-23)), 64 µg/mL; in assay [4] (Acinetobacter baumannii, read-out: Minimum Inhibitory Concentration, AB1244 (OXA-23)) it was 64 µg/mL; in assay [4] (Acinetobacter baumannii, read-out: Minimum Inhibitory Concentration, AB1291 (KPC-2)), > 64 µg/mL. In addition, the MIC in assay [4] (Acinetobacter baumannii, read-out: Minimum Inhibitory Concentration, AB1307 (OXA-23)) is 32 µg/mL; in assay [4] (Acinetobacter baumannii, read-out: Minimum Inhibitory Concentration, AB1333 (OXA-239)) it was 16 µg/mL; in assay [4] (Acinetobacter baumannii, read-out: Minimum Inhibitory Concentration, AB1358 (NDM-1)) it was > 64 µg/mL; in assay [4] (Acinetobacter baumannii, read-out: Minimum Inhibitory Concentration, AB1359 (NDM-1)), > 64 µg/mL.
With `Cn1c(N)c(NC(=O)NCCN)c[n+]1CC1=C(C(=O)O)N2C(=O)[C@@H](NC(=O)/C(=N\OC(C)(C)C(=O)[O-])c3nsc(N)n3)[C@H]2SC1` [TOL, ceftolozane], the “Minimum Inhibitory Concentration Distribution, % of isolates” value came to 0.2% in assay [5] (MIC 0.125 μg/mL); 2.8% in assay [5] (MIC 0.25 μg/mL); 56.2% in assay [5] (MIC 0.5 μg/mL); 77.4% in assay [5] (MIC 1 μg/mL); 85.2% in assay [5] (MIC 2 μg/mL); 90.4% in assay [5] (MIC 4 μg/mL). For the same molecule, the “Minimum Inhibitory Concentration Distribution, % of isolates” value in assay [5] (MIC 8 μg/mL) worked out at 92.2%; in assay [5] (MIC 16 μg/mL), 93.0%; in assay [5] (MIC 32 μg/mL) it was 93.2%; in assay [5] (MIC >32 μg/mL) it was 100.0%; in assay [5] (MIC ≤0.06 μg/mL), 0.2%. Moreover, the “% susceptible, [S]” value in assay [5] (PA (CAZ-AVI MIC >8) (37)) is “(18.2) %”; in assay [5] (PA (Challenge, 652)), “(44.0) %”; in assay [5] (PA (MER MIC >2) (612)), “(56.2) %”; in assay [5] (PA (Representative, 500)) it was “(90.4) %”; in assay [5] (PA (TOL-TAZ MIC >4) (39)) it was “(3.3) %”; in assay [4] (AB CP (100), defined carbapenemases, Compound 1 at fixed 4 μg/mL), “(0.0) %”. Further, the “% susceptible, [S]” value in assay [4] (setting [7]) is given as “(1.3) %”. The MIC50 is > 32 µg/mL in assay [5] (PA (CAZ-AVI MIC >8) (37)); 16 µg/mL in assay [5] (PA (Challenge, 652)); 4 µg/mL in assay [5] (PA (MER MIC >2) (612)); 0.5 µg/mL in assay [5] (PA (Representative, 500)); > 32 µg/mL in assay [5] (PA (TOL-TAZ MIC >4) (39)); > 32 µg/mL in assay [2] (CRE KPC, N = 168). The MIC50 was > 32 µg/mL in assay [2] (CRE MBL, N = 145); > 32 µg/mL in assay [2] (CRE OXA, N = 152); > 32 µg/mL in assay [2] (setting [6]); > 32 µg/mL in assay [3]; > 32 µg/mL in assay [4] (Acinetobacter baumannii, AB CP (100), defined carbapenemases, Compound 1 at fixed 4 μg/mL, read-out: MIC50); >32/>32 μg/mL in assay [4] (setting [7]). Further, the MIC90 in assay [5] (PA (CAZ-AVI MIC >8) (37)) is > 32 µg/mL; in assay [5] (PA (Challenge, 652)), > 32 µg/mL; in assay [5] (PA (MER MIC >2) (612)), > 32 µg/mL; in assay [5] (PA (Representative, 500)), 4 µg/mL; in assay [5] (PA (TOL-TAZ MIC >4) (39)), > 32 µg/mL; in assay [2] (CRE KPC, N = 168), > 32 µg/mL. Also, the MIC90 in assay [2] (CRE MBL, N = 145) was > 32 µg/mL; in assay [2] (CRE OXA, N = 152), > 32 µg/mL; in assay [2] (setting [6]), > 32 µg/mL; in assay [3] it was > 32 µg/mL; in assay [4] (Acinetobacter baumannii, AB CP (100), defined carbapenemases, Compound 1 at fixed 4 μg/mL, read-out: MIC90) it was > 32 µg/mL; in assay [4] (setting [7]), >32/>32 μg/mL.
